Laboratory results taken from patent US8273752B2, “Substituted imidazopyrimidines and triazolopyrimidines” (Bayer Intellectual Property GmbH, priority 2007, dated 2012).
Where a name gives a salt, the structure may show the parent alone.

Target: T1, GSK3β (Homo sapiens, UniProt P49841)
T1 construct: purchased Upstate xy
Test: GSK3β biochemical in vitro assay (fluorescence, NADH-coupled)
Conditions: 5 nM GSK3β, 40 μM substrate GSM, 50 μM ATP, 30° C., 2 hours
Protocol: The inhibitory activity of active substances is determined in a biochemical assay. The ingredients required for this purpose are mixed in a black 384-well microtitre plate with transparent base (from Greiner, catalogue number 781092). The requirements in this connection for each well of the 384-well microtitre plate are 5 nM GSK3β (from Upstate, catalogue number xy), 40 μM GSK3B substrate GSM (sequence H-RRRPASVPPSPSLSRHS-(pS)-HQRR, from Upstate, catalogue number 2-533), 30 μM nicotinamide adenine dinucleotide NADH (Roche Diagnostics, catalogue number 10107735), 50 μM adenosine triphosphate ATP (from Sigma, catalogue number A7966), and 2 mM phosphoenolpyruvate (from Roche, catalogue number 128112). The required reaction buffer in which the biochemical reaction takes place consists of 50 mM Trizma hydrochloride tris-HCl pH: 7.5 (from Sigma, catalogue number T3253), 5 mM magnesium chloride MgCl2 (from Sigma, catalogue number M8266), 0.2 mM DL-dithiothreitol DTT (from Sigma, catalogue number D9779), 2 mM ethylenediaminethertetraacid EDTA (from Sigma, catalogue number E6758), 0.01% Triton X-100 (from Sigma, catalogue number T8787) and 0.05% bovine serum albumin BSA (from Sigma, catalogue number B4287).
Active substances are dissolved in dimethyl sulphoxide DMSO (from Sigma, catalogue number D8418) in a concentration of 10 mM. Active substances are added in serial concentrations of 10 μM, 1 μM, 0.1 μM, 0.01 μM, 0.001 μM, 0.0001 μM, 0.00001 μM, 0.000001 μM to the mixtures of the biochemical reaction. As control, dimethyl sulphoxide is added instead of substance in a final concentration of 0.1%.
The reaction is incubated at 30° C. for 2 hours and then the resulting fluorescence is measured in a Tecan Safire-XFLUOR4 instrument, version V4.50 (serial number 12901300283) with the specifications: measurement mode—fluorescence measured from below, extinction wavelength 340 nm, emission wavelength 465 nm, slit width extinction 5 nm, slit width emission 5 nm, gain mode 120, delay 0 μs, number of light flashes per measurement 3, and an integration time of 40 μs.
The activity of the active substances is calculated in relation to these 0% and 100%.

T1 sequence (P49841 whole entry, species assumed): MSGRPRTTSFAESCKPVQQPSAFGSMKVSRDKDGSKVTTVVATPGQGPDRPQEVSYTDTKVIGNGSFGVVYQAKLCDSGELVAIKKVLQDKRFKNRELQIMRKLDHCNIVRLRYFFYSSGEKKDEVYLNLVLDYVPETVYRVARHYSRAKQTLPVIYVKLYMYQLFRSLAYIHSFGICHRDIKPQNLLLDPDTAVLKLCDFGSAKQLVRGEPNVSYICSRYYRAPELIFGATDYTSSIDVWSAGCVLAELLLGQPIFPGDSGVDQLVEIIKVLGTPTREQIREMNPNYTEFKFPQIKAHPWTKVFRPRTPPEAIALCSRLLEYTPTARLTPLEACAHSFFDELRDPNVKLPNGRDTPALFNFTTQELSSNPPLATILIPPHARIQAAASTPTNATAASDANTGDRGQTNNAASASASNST

Compound | IC50 [nM]
N#Cc1ccc(NC2CCCN(c3nc(-c4ccc(Cl)cc4Cl)cc4nccn34)C2)nc1 (single isomer, unassigned) [Ent. B 123, 6-({1-[7-(2,4-dichlorophenyl)imidazo[1,2-c]pyrimidin-5-yl]piperidin-3-yl}amino)pyridine-3-carbonitrile trifluoroacetate] | 22
N#Cc1ccc(NCCNc2nc(-c3ccc(Cl)cc3Cl)cc3nccn23)nc1 [Example 1, 6-[(2-{[7-(2,4-Dichlorophenyl)imidazo[1,2-c]pyrimidin-5-yl]amino}ethyl)amino]nicotinonitrile] | 34
Nc1nc(NCCNc2nc(-c3ccc(Cl)cc3Cl)cc3nccn23)ccc1[N+](=O)[O-] [Example 4, N^6-(2-{[7-(2,4-Dichlorophenyl)imidazo[1,2-c]pyrimidin-5-yl]amino}ethyl)-3-nitropyridine-2,6-diamine] | 5
N#Cc1sc(NCCNc2nc(-c3ccc(Cl)cc3Cl)cc3nccn23)nc1N [Example 5, 4-Amino-2-[(2-{[7-(2,4-dichlorophenyl)imidazo[1,2-c]pyrimidin-5-yl]amino}ethyl)amino]-1,3-thiazole-5-carbonitrile] | 15
O=[N+]([O-])c1ccc(NCCNc2nc(-c3ccc(Cl)cc3Cl)cc3nccn23)nc1 [Example 6, N-[7-(2,4-Dichlorophenyl)imidazo[1,2-c]pyrimidin-5-yl]-N′-(5-nitropyridin-2-yl)ethane-1,2-diamine] | 44
N#Cc1ccc(NCCNc2nc(-c3ccc(C(F)(F)F)cc3)cc3nccn23)nc1 [Example 7, 6-{[2-({7-[4-(Trifluoromethyl)phenyl]imidazo[1,2-c]pyrimidin-5-yl}amino)ethyl]amino}-nicotinonitrile] | 183
CC(C)(C)c1ccc(-c2cc3nccn3c(NCCNc3ccc(C#N)cn3)n2)cc1 [Example 8] | 178
Nc1nc(NCCNc2nc(-c3ccc(OC(F)(F)F)cc3)cc3nccn23)ccc1[N+](=O)[O-] [Example 32] | 148
Cc1cc(C)cc(-c2cc3nccn3c(NCCNc3ccc([N+](=O)[O-])c(N)n3)n2)c1 [Example 36] | 15
Cc1cccc(-c2cc3nccn3c(NCCNc3ccc([N+](=O)[O-])c(N)n3)n2)c1C [Example 38] | 23
Cc1cc(F)ccc1-c1cc2nccn2c(NCCNc2ccc([N+](=O)[O-])c(N)n2)n1 [Example 39] | 23
Cc1cccc(-c2cc3nccn3c(NCCNc3ccc([N+](=O)[O-])c(N)n3)n2)c1 [Example 40] | 24
Nc1nc(NCCNc2nc(-c3ccc(F)c(Cl)c3)cc3nccn23)ccc1[N+](=O)[O-] [Example 53] | 81
CCOc1ccc(-c2cc3nccn3c(NCCNc3ccc([N+](=O)[O-])c(N)n3)n2)cc1 [Example 56] | 91
Nc1nc(NCCNc2nc(-c3ccccc3)cc3nccn23)ccc1[N+](=O)[O-] [Example 57] | 93
CC(C)Cn1cc(-c2cc3nccn3c(NCCNc3ccc([N+](=O)[O-])c(N)n3)n2)cn1 [Example 63] | 173
CCCCc1ccc(-c2cc3nccn3c(NCCNc3ccc([N+](=O)[O-])c(N)n3)n2)cc1 [Example 65] | 188
Nc1nc(NCCNc2nc(-c3ccc(C(F)(F)F)cc3)cc3nccn23)ccc1[N+](=O)[O-] [Example 66] | 196
Cc1cn2c(NCCNc3ccc([N+](=O)[O-])c(N)n3)nc(-c3ccc(Cl)cc3Cl)cc2n1 [Example 77, N^6-(2-{[7-(2,4-Dichlorophenyl)-2-methylimidazo[1,2-c]pyrimidin-5-yl]amino}ethyl)-3-nitropyridine-2,6-diamine] | 17
Nc1nc(NCCNc2nc(-c3ccc(Cl)cc3Cl)cc3nc(CN4CCOCC4)cn23)ccc1[N+](=O)[O-] [Example 81, N^6-(2-{[7-(2,4-Dichlorophenyl)-2-(morpholin-4-ylmethyl)imidazo[1,2-c]pyrimidin-5-yl]amino}ethyl)-3-nitropyridine-2,6-diamine trifluoroacetate] | 8
N#Cc1ccc(NCCNc2nc(-c3ccc(C(F)(F)F)cc3)cc3ncnn23)nc1 [Example 93, 6-{[2-({7-[4-(Trifluoromethyl)phenyl][1,2,4]triazolo[1,5-c]pyrimidin-5-yl}amino)ethyl]amino}-nicotinonitrile] | 72
CN1CCN(C(=O)c2cn3c(NCCNc4ccc(C#N)cn4)nc(-c4ccc(Cl)cc4Cl)cc3n2)CC1 [Example 111] | 89

Compound | IC50 [nM]
CN(C)CCNC(=O)c1cn2c(NCCNc3ccc(C#N)cn3)nc(-c3ccc(Cl)cc3Cl)cc2n1 [Example 112] | 54
CN1CCN(CCNC(=O)c2cn3c(NCCNc4ccc(C#N)cn4)nc(-c4ccc(Cl)cc4Cl)cc3n2)CC1 [Example 113] | 41
N#Cc1ccc(NCCNc2nc(-c3ccc(Cl)cc3Cl)cc3nc(C(=O)NCC(=O)O)cn23)nc1 [Example 115] | 5
N#Cc1ccc(NCCNc2nc(-c3ccc(C(F)(F)F)cc3)cc3nc(C(=O)NCCO)cn23)nc1 [Example 117] | 94
N#Cc1ccc(NCCNc2nc(-c3ccc(C(F)(F)F)cc3)cc3nc(C(=O)NC(CO)CO)cn23)nc1 [Example 120] | 124
CC(=O)c1sc(NC2CCCN(c3nc(-c4ccc(Cl)cc4Cl)cc4nccn34)C2)nc1N (stereo not shown) [Example 128, 1-[4-amino-2-({1-[7-(2,4-dichlorophenyl)imidazo[1,2-c]pyrimidin-5-yl]piperidin-3-yl}amino)-1,3-thiazol-5-yl]ethanone trifluoroacetate] | 3
Nc1nc(NCCNc2nc(-c3ccc(Cl)cc3Cl)cc3nccn23)sc1C(=O)C(F)(F)F [Example 129] | 7
Nc1nc(NCCNc2nc(-c3ccc(Cl)cc3Cl)cc3nccn23)sc1C(=O)C1CC1 [Example 131] | 6
COC(=O)c1sc(NCCNc2nc(-c3ccc(Cl)cc3Cl)cc3nccn23)nc1N [Example 134] | 22
CC(=O)c1sc(NCCNc2nc(-c3ccc(Cl)cc3Cl)cc3nccn23)nc1N [Example 137] | 5
N#Cc1ccc(NCCNc2nc(-c3ccc(Cl)cc3Cl)cc3nc(CN4CCOCC4)cn23)nc1 [Example 145, 6-[(2-{[7-(2,4-Dichlorophenyl)-2-(morpholin-4-ylmethyl)imidazo[1,2-c]pyrimidin-5-yl]amino}-ethyl)amino]pyridine-3-carbonitrile trifluoroacetate] | 62
CN(C)Cc1cn2c(NCCNc3ccc([N+](=O)[O-])c(N)n3)nc(-c3ccc(Cl)cc3Cl)cc2n1 [Example 147, N^6-[2-({7-(2,4-Dichlorophenyl)-2-[(dimethylamino)methyl]imidazo[1,2-c]pyrimidin-5-yl}amino)-ethyl]-3-nitropyridine-2,6-diamine trifluoroacetate] | 24
N#Cc1ccc(NCCNc2nc(-c3ccc(Cl)cc3Cl)cc3nccn23)nc1N [Example 148, 2-Amino-6-[(2-{[7-(2,4-dichlorophenyl)imidazo[1,2-c]pyrimidin-5-yl]amino}ethyl)amino]-pyridine-3-carbonitrile] | 12
Nc1nc(NCCNc2nc(-c3ccc(Cl)cc3Cl)cc3nccn23)ccc1C(=O)C(F)(F)F [Example 149, 1-{2-Amino-6-[(2-{[7-(2,4-dichlorophenyl)imidazo[1,2-c]pyrimidin-5-yl]amino}ethyl)amino]-pyridin-3-yl}-2,2,2-trifluoroethanone hydrochloride] | 10
CC(=O)c1ccc(NCCNc2nc(-c3ccc(Cl)cc3Cl)cc3nccn23)nc1N [Example 150, 1-{2-Amino-6-[(2-{[7-(2,4-dichlorophenyl)imidazo[1,2-c]pyrimidin-5-yl]amino}ethyl)amino]-pyridin-3-yl}ethanone hydrochloride] | 11
N#Cc1ccc(NCCNc2nc(-c3ccc(Cl)cc3Cl)cc3ncc(Br)n23)nc1 [Example 153, 6-[(2-{[3-Bromo-7-(2,4-dichlorophenyl)imidazo[1,2-c]pyrimidin-5-yl]amino}ethyl)amino]-pyridine-3-carbonitrile] | 14
N#Cc1ccc(NCCNc2nc(-c3ccc(Cl)cc3Cl)cc3ncc(Cl)n23)nc1 [Example 154, 6-[(2-{[3-Chloro-7-(2,4-dichlorophenyl)imidazo[1,2-c]pyrimidin-5-yl]amino}ethyl)amino]-pyridine-3-carbonitrile] | 19
COC(=O)c1ccc(NCCNc2nc(-c3ccc(Cl)cc3Cl)cc3ncnn23)nc1N [Example 167] | 61
N#Cc1ccc(NCCNc2nc(-c3ccc(C(F)(F)F)cc3)cc3nc(CN4CCOCC4)nn23)nc1N [Example 180] | 50
N#Cc1sc(NCCNc2nc(-c3ccc(Cl)cc3Cl)cc3nc(CN4CCOCC4)nn23)nc1N [Example 185] | 39
N#Cc1sc(NCCNc2nc(-c3ccc(C(F)(F)F)cc3)cc3ncnn23)nc1N [Example 186] | 27
